# Reference: ChEMBL document CHEMBL3390836, “Mannich- and LedererManasse-based analogues of the natural product S-(+)-curcuphenol as cancer proliferation and migration inhibitors” (Medchemcomm, 2012)
# Experiments:
# CCRF-CEM [1] = assay: Cytotoxicity against human CCRF-CEM cells assessed as cell growth at 10^-6 M after 48 hrs by SRB assay relative to control; type: functional; conditions: read-out: Activity
# [2] = Cytotoxicity against human UACC257 cells assessed as cell growth at 10^-6 M after 48 hrs by SRB assay relative to control; type: functional; conditions: UACC-257, 48 h, read-out: Activity
# [3] = Cytotoxicity against human UACC257 cells assessed as cell growth at 10^-8 M after 48 hrs by SRB assay relative to control; type: functional; conditions: UACC-257, 48 h, read-out: Activity
# M14 [4] = assay: Cytotoxicity against human M14 cells assessed as cell growth at 10^-7 M after 48 hrs by SRB assay relative to control; type: functional; conditions: M14, 48 h, read-out: Activity
# M14 [5] = assay: Cytotoxicity against human M14 cells assessed as cell growth at 10^-8 M after 48 hrs by SRB assay relative to control; type: functional; conditions: M14, 48 h, read-out: Activity
# M14 [6] = assay: Cytotoxicity against human M14 cells assessed as cell growth at 10^-6 M after 48 hrs by SRB assay relative to control; type: functional; conditions: M14, 48 h, read-out: Activity
# RPMI-8226 [7] = assay: Cytotoxicity against human RPMI8226 cells after 48 hrs by SRB assay; type: functional; conditions: RPMI-8226, 48 h; for CC50: read-out: LC50 (the source's name)
# M14 [8] = assay: Cytotoxicity against human M14 cells after 48 hrs by SRB assay; type: functional; conditions: M14, 48 h; for CC50: read-out: LC50 (the source's name)
# RPMI-8226 [9] = assay: Cytotoxicity against human RPMI8226 cells assessed as cell growth at 10^-6 M after 48 hrs by SRB assay relative to control; type: functional; conditions: RPMI-8226, 48 h, read-out: Activity
# RPMI-8226 [10] = assay: Cytotoxicity against human RPMI8226 cells assessed as cell growth at 10^-7 M after 48 hrs by SRB assay relative to control; type: functional; conditions: RPMI-8226, 48 h, read-out: Activity
# CCRF-CEM [11] = assay: Cytotoxicity against human CCRF-CEM cells assessed as cell growth at 10^-7 M after 48 hrs by SRB assay relative to control; type: functional; conditions: read-out: Activity
# [12] = Cytotoxicity against human UACC257 cells assessed as cell growth at 10^-4 M after 48 hrs by SRB assay relative to control; type: functional; conditions: UACC-257, 48 h, read-out: Activity
# RPMI-8226 [13] = assay: Cytotoxicity against human RPMI8226 cells assessed as cell growth at 10^-4 M after 48 hrs by SRB assay relative to control; type: functional; conditions: RPMI-8226, 48 h, read-out: Activity
# CCRF-CEM [14] = assay: Cytotoxicity against human CCRF-CEM cells assessed as cell growth at 10^-8 M after 48 hrs by SRB assay relative to control; type: functional; conditions: read-out: Activity
# [15] = Cytotoxicity against human UACC257 cells assessed as cell growth at 10^-7 M after 48 hrs by SRB assay relative to control; type: functional; conditions: UACC-257, 48 h, read-out: Activity
# M14 [16] = assay: Cytotoxicity against human M14 cells assessed as cell growth at 10^-4 M after 48 hrs by SRB assay relative to control; type: functional; conditions: M14, 48 h, read-out: Activity
# CCRF-CEM [17] = assay: Cytotoxicity against human CCRF-CEM cells after 48 hrs by SRB assay; type: functional; conditions: read-out: LC50 (the source's name)
# CCRF-CEM [18] = assay: Cytotoxicity against human CCRF-CEM cells assessed as cell growth at 10^-4 M after 48 hrs by SRB assay relative to control; type: functional; conditions: read-out: Activity
# [19] = Cytotoxicity against human UACC257 cells after 48 hrs by SRB assay; type: functional; conditions: UACC-257, 48 h
# K562 = assay: Cytotoxicity against human K562 cells assessed as cell growth at 10^-4 M after 48 hrs by SRB assay relative to control; type: functional; conditions: K562, 48 h, read-out: Activity
# NCI-H522 [20] = assay: Cytotoxicity against human NCI-H522 cells after 48 hrs by SRB assay; type: functional; conditions: NCI-H522, 48 h; for CC50: read-out: LC50 (the source's name)
# MOLT-4 = assay: Cytotoxicity against human MOLT4 cells assessed as cell growth at 10^-4 M after 48 hrs by SRB assay relative to control; type: functional; conditions: MOLT-4, 48 h, read-out: Activity
# DU-145 [21] = assay: Cytotoxicity against human DU145 cells assessed as cell growth at 10^-4 M after 48 hrs by SRB assay relative to control; type: functional; conditions: DU-145, 48 h, read-out: Activity
# BT-549 = assay: Cytotoxicity against human BT549 cells assessed as cell growth at 10^-8 M after 48 hrs by SRB assay relative to control; type: functional; conditions: BT-549, 48 h, read-out: Activity
# SR [22] = assay: Cytotoxicity against human SR cells assessed as cell growth at 10^-6 M after 48 hrs by SRB assay relative to control; type: functional; conditions: read-out: Activity
# DU-145 [23] = assay: Cytotoxicity against human DU145 cells assessed as cell growth at 10^-8 M after 48 hrs by SRB assay relative to control; type: functional; conditions: DU-145, 48 h, read-out: Activity
# SR [24] = assay: Cytotoxicity against human SR cells after 48 hrs by SRB assay; type: functional; conditions: for CC50: read-out: LC50 (the source's name)
# SR [25] = assay: Cytotoxicity against human SR cells assessed as cell growth at 10^-7 M after 48 hrs by SRB assay relative to control; type: functional; conditions: read-out: Activity
# NCI-H522 [26] = assay: Cytotoxicity against human NCI-H522 cells assessed as cell growth at 10^-4 M after 48 hrs by SRB assay relative to control; type: functional; conditions: NCI-H522, 48 h, read-out: Activity
# DU-145 [27] = assay: Cytotoxicity against human DU145 cells assessed as cell growth at 10^-6 M after 48 hrs by SRB assay relative to control; type: functional; conditions: DU-145, 48 h, read-out: Activity
# DU-145 [28] = assay: Cytotoxicity against human DU145 cells after 48 hrs by SRB assay; type: functional; conditions: DU-145, 48 h
# NCI-H522 [29] = assay: Cytotoxicity against human NCI-H522 cells assessed as cell growth at 10^-7 M after 48 hrs by SRB assay relative to control; type: functional; conditions: NCI-H522, 48 h, read-out: Activity
# [30] = molecular target: Proto-oncogene tyrosine-protein kinase Src (Homo sapiens, UniProt P12931); assay: Inhibition of Src (unknown origin)
# Proto-oncogene tyrosine-protein kinase Src, sequence (P12931 2-536 limits assumed): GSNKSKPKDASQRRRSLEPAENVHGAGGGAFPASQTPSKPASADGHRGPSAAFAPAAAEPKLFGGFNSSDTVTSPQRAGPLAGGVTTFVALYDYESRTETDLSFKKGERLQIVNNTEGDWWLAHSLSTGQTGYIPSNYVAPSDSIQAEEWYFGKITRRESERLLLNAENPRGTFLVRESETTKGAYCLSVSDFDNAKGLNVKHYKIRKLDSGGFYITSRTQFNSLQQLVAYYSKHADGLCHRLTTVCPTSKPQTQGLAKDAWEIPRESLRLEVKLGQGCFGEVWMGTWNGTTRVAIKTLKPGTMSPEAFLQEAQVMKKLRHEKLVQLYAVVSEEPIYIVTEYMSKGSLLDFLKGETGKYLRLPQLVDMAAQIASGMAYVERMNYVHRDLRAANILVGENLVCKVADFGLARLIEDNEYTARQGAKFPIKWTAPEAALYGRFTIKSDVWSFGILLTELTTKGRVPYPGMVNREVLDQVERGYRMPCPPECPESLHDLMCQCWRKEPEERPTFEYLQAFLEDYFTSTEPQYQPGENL
compound,measurement,setting,value
COc1ccc(CCN2COc3c([C@@H](C)CCC=C(C)C)ccc(C)c3C2)cc1OC,growth at 1 µM,CCRF-CEM [1],93%
same,growth at 1 µM,[2],91%
same,growth at 0.01 µM,[3],80%
same,growth at 0.1 µM,M14 [4],97%
same,growth at 0.01 µM,M14 [5],95%
same,growth at 1 µM,M14 [6],92%
same,GI50,RPMI-8226 [7],2.09 µM
same,TGI,RPMI-8226 [7],7.67 µM
same,CC50,RPMI-8226 [7],> 100 µM
same,GI50,M14 [8],1.69 µM
same,TGI,M14 [8],3.18 µM
same,CC50,M14 [8],5.97 µM
same,growth at 1 µM,RPMI-8226 [9],78%
same,growth at 0.1 µM,RPMI-8226 [10],93%
same,growth at 0.1 µM,CCRF-CEM [11],98%
same,growth at 100 µM,[12],-84%
same,growth at 100 µM,RPMI-8226 [13],-28%
same,growth at 0.01 µM,CCRF-CEM [14],96%
same,growth at 0.1 µM,[15],91%
same,growth at 100 µM,M14 [16],-100%
same,CC50,CCRF-CEM [17],> 100 µM
same,growth at 100 µM,CCRF-CEM [18],-29%
same,GI50,[19],0.0283 µM
same,TGI,[19],10.9 µM
same,CC50,[19]; read-out: LC50 (the source's name),40.8 µM
CC(C)=CCC[C@H](C)c1ccc(C)c2c1OCN(CC1CCNCC1)C2,growth at 100 µM,K562,-50%
same,GI50,NCI-H522 [20],13.5 µM
same,TGI,NCI-H522 [20],28.6 µM
same,CC50,NCI-H522 [20],60.4 µM
same,growth at 0.1 µM,M14 [4],99%
same,growth at 0.01 µM,M14 [5],96%
same,growth at 1 µM,M14 [6],114%
same,GI50,RPMI-8226 [7],7.25 µM
same,TGI,RPMI-8226 [7],32.6 µM
same,CC50,RPMI-8226 [7],> 100 µM
same,GI50,M14 [8],10.2 µM
same,TGI,M14 [8],24.5 µM
same,CC50,M14 [8],58.9 µM
same,growth at 1 µM,RPMI-8226 [9],110%
same,growth at 100 µM,MOLT-4,-39%
same,growth at 100 µM,DU-145 [21],-94%
same,growth at 0.1 µM,RPMI-8226 [10],102%
same,growth at 0.01 µM,BT-549,94%
same,growth at 1 µM,SR [22],91%
same,growth at 0.01 µM,DU-145 [23],104%
same,GI50,SR [24],2.79 µM
same,TGI,SR [24],9.83 µM
same,CC50,SR [24],> 100 µM
same,growth at 0.1 µM,SR [25],98%
same,growth at 100 µM,NCI-H522 [26],-84%
same,growth at 100 µM,RPMI-8226 [13],-38%
same,growth at 1 µM,DU-145 [27],102%
same,growth at 100 µM,M14 [16],-80%
same,GI50,DU-145 [28],16.4 µM
same,LC50,DU-145 [28],63.2 µM
same,TGI,DU-145 [28],32.2 µM
same,growth at 0.1 µM,NCI-H522 [29],88%
CC(C)=CCC[C@H](C)c1ccc(C)c(CNCC2CCNCC2)c1O,growth at 1 µM,[2],80%
same,growth at 100 µM,K562,-58%
same,GI50,NCI-H522 [20],8.22 µM
same,TGI,NCI-H522 [20],> 25 µM
same,CC50,NCI-H522 [20],> 25 µM
same,growth at 0.01 µM,[3],93%
same,growth at 100 µM,MOLT-4,-22%
same,growth at 100 µM,DU-145 [21],41%
same,growth at 0.01 µM,BT-549,98%
same,growth at 1 µM,SR [22],87%
same,growth at 0.01 µM,DU-145 [23],100%
same,growth at 100 µM,[12],-8.3%
same,GI50,SR [24],3.71 µM
same,TGI,SR [24],9.67 µM
same,CC50,SR [24],> 25 µM
same,growth at 0.1 µM,SR [25],84%
same,growth at 100 µM,NCI-H522 [26],9%
same,growth at 1 µM,DU-145 [27],100%
same,growth at 0.1 µM,[15],95%
same,GI50,DU-145 [28],16.4 µM
same,LC50,DU-145 [28],> 25 µM
same,TGI,DU-145 [28],> 25 µM
same,growth at 0.1 µM,NCI-H522 [29],96%
same,CC50,CCRF-CEM [17],1.64 µM
CC(C)=CCC[C@H](C)c1ccc(C)cc1O,IC50,[30],35.8 µM
